Data as given in US20250346585A1 (Alexion Pharmaceuticals, Inc., priority 2022, published 2025).

Molecular target: Human complement C1s enzyme (Homo sapiens (Human), UniProt P09871)
Assay: Human C1s enzyme assay
Assay type: biochemical
Settings: Human C1s enzyme assay of Example 3; read-out: IC50 (Stars)
Outline: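 IC50 derived by nonlinear regression of rate versus concentration, with rate taken from A405 kinetics (30 s intervals, 30 min) after adding 100 μM each Z-L-Lys-SBzl and DTNB. C1s from human serum, 1.16 nM, exposed to compound for 5 min at RT beforehand; buffer 50 mM Tris, 1 M NaCl, pH 7.5.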

Sequence of Human complement C1s enzyme (P09871 438-688 limits assumed): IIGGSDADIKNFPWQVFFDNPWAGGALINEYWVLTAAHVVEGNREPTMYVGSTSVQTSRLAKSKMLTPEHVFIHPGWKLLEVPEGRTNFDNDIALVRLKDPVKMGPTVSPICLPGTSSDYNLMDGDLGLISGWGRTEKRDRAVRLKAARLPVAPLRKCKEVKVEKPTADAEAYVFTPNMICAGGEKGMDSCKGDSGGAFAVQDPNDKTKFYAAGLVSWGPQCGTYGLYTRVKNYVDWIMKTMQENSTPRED
Sequence of Human complement C1s enzyme (P09871 16-437 partner limits assumed): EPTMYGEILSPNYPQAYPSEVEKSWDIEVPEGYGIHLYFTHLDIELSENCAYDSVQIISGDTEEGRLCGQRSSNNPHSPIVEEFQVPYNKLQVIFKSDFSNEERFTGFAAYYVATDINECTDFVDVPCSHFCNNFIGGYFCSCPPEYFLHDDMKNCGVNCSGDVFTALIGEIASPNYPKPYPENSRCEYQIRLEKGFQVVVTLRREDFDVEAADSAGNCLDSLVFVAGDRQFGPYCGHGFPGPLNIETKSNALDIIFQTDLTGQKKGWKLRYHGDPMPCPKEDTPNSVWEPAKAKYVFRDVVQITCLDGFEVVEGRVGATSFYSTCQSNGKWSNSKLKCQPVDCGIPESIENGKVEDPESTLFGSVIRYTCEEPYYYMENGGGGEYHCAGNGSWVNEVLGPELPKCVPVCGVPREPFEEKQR

Compared with C[C@@H](NC(=O)[C@@H]1CC2(CN1C(=O)CNC(=O)c1ccc3c(c1)-c1ccccc1C3(F)F)OCCO2)c1cc(-c2ncco2)cs1 [Compound 113, (S)-7-((9,9-difluoro-9H-fluorene-3-carbonyl)glycyl)-N—((R)-1-(4-(oxazol-2-yl)thiophen-2-yl)ethyl)-1,4-dioxa-7-azaspiro[4.4]nonane-8-carboxamide], C[C@@H](NC(=O)[C@@H]1CC2(CN1C(=O)CNC(=O)c1ccc3c(c1)C(F)(F)c1ccccc1-3)OCCO2)c1cc(C(=N)N)cs1 [Compound 138, (S)—N—((R)-1-(4-carbamimidoylthiophen-2-yl)ethyl)-7-((9,9-difluoro-9H-fluorene-7-carbonyl)glycyl)-1,4-dioxa-7-azaspiro[4.4]nonane-8-carboxamide] is lower in IC50: greater than 1 µM for the first, less than 0.1 µM for the second.

C[C@@H](NC(=O)[C@@H]1CC2(CN1C(=O)CNC(=O)c1ccc(-c3cc(F)ccc3F)cc1)OCCO2)c1cc(C(=N)N)cs1 [Compound 166, (S)—N—((R)-1-(4-carbamimidoylthiophen-2-yl)ethyl)-7-((2′,5′-difluoro-[1,1′-biphenyl]-4-carbonyl)glycyl)-1,4-dioxa-7-azaspiro[4.4]nonane-8-carboxamide] and C[C@@H](NC(=O)[C@@H]1CC2(CN1C(=O)CNC(=O)c1ccc(-c3ccc(F)cc3F)cc1)OCCO2)c1cc(C(=N)N)cs1 [Compound 158, (S)—N—((R)-1-(4-carbamimidoylthiophen-2-yl)ethyl)-7-((2′,4′-difluoro-[1,1′-biphenyl]-4-carbonyl)glycyl)-1,4-dioxa-7-azaspiro[4.4]nonane-8-carboxamide] cannot be ordered by IC50: less than 0.1 µM for the first, less than 0.1 µM for the second.

C[C@@H](NC(=O)[C@@H]1C[C@@H](OC(F)F)CN1C(=O)CNC(=O)c1ccc(Oc2ccc(F)cc2)cc1)c1cc(C(=N)N)cs1 [Compound 8, (2S,4R)—N—((R)-1-(4-carbamimidoylthiophen-2-yl)ethyl)-4-(difluoromethoxy)-1-((4-(4-fluorophenoxy)benzoyl)glycyl)pyrrolidine-2-carboxamide] and C[C@@H](NC(=O)[C@@H]1C[C@@H](OC(F)F)CN1C(=O)CNC(=O)c1ccc(Oc2ccc(C#N)cc2)cc1)c1cc(C(=N)N)cs1 [Compound 49, (2S,4R)—N—((R)-1-(4-carbamimidoylthiophen-2-yl)ethyl)-1-((4-(4-cyanophenoxy)benzoyl)glycyl)-4-(difluoromethoxy)pyrrolidine-2-carboxamide] cannot be ordered by IC50: less than 0.1 µM for the first, less than 0.1 µM for the second.

C[C@@H](NC(=O)[C@@H]1C[C@](F)(CN(C)C)CN1C(=O)CNC(=O)c1ccc2c(c1)-c1ccccc1C2(F)F)c1cc(C(=N)N)cs1 [Compound 36, (2S,4S)—N—((R)-1-(4-carbamimidoylthiophen-2-yl)ethyl)-1-((9,9-difluoro-9H-fluorene-3-carbonyl)glycyl)-4-((dimethylamino)methyl)-4-fluoropyrrolidine-2-carboxamide] and C[C@@H](NC(=O)[C@@H]1C[C@@H](OC(F)F)CN1C(=O)CNC(=O)c1ccc2c(c1)-c1ccccc1C2(F)F)c1cc(C(=N)N)cs1 [Compound 9, (2S,4R)—N—((R)-1-(4-carbamimidoylthiophen-2-yl)ethyl)-1-((9,9-difluoro-9H-fluorene-3-carbonyl)glycyl)-4-(difluoromethoxy)pyrrolidine-2-carboxamide] cannot be ordered by IC50: less than 0.1 µM for the first, less than 0.1 µM for the second.

C[C@@H](NC(=O)[C@@H]1CC2(CN1C(=O)CNC(=O)c1ccc3c(c1)-c1ccccc1C3(C)C)OCCO2)c1cc(C(=N)N)cs1 [Compound 94, (S)—N—((R)-1-(4-carbamimidoylthiophen-2-yl)ethyl)-7-((9,9-dimethyl-9H-fluorene-3-carbonyl)glycyl)-1,4-dioxa-7-azaspiro[4.4]nonane-8-carboxamide] and COc1ccc2c(c1)C(F)(F)c1ccc(C(=O)NCC(=O)N3CC4(C[C@H]3C(=O)N[C@H](C)c3cc(C(=N)N)cs3)OCCO4)cc1-2 [Compound 191, (S)—N—((R)-1-(4-carbamimidoylthiophen-2-yl)ethyl)-7-((9,9-difluoro-7-methoxy-9H-fluorene-3-carbonyl)glycyl)-1,4-dioxa-7-azaspiro[4.4]nonane-8-carboxamide] cannot be ordered by IC50: less than 0.1 µM for the first, less than 0.1 µM for the second.

C[C@@H](NC(=O)[C@@H]1C[C@](F)(CF)CN1C(=O)CNC(=O)c1ccc(Oc2ccc(F)cc2)cc1)c1cc(C(=N)N)cs1 [Compound 13] and COC[C@@H]1C[C@@H](C(=O)N[C@H](C)c2cc(C(=N)N)cs2)N(C(=O)CNC(=O)c2ccc(Oc3ccc(F)cc3)cc2)C1 (relative stereo) [Compound 79, (2S,4R*)—N—((R)-1-(4-carbamimidoylthiophen-2-yl)ethyl)-1-((4-(4-fluorophenoxy)benzoyl)glycyl)-4-(methoxymethyl)pyrrolidine-2-carboxamide] cannot be ordered by IC50: less than 0.1 µM for the first, less than 0.1 µM for the second.

Compared with C[C@@H](NC(=O)[C@@H]1CC2(CN1C(=O)CNC(=O)c1ccc(Oc3ccc(F)cc3)cc1)OCCO2)c1ccc(C(=N)N)s1 [Compound 85, (S)—N—((R)-1-(5-carbamimidoylthiophen-2-yl)ethyl)-7-((4-(4-fluorophenoxy)benzoyl)glycyl)-1,4-dioxa-7-azaspiro[4.4]nonane-8-carboxamide], Nc1csc(-c2csc(CNC(=O)[C@@H]3CC4(CN3C(=O)CNC(=O)c3ccc(Oc5ccc(F)cc5)cc3)OCCO4)c2)n1 [Compound 184, (S)—N-((4-(4-aminothiazol-2-yl)thiophen-2-yl)methyl)-7-((4-(4-fluorophenoxy)benzoyl)glycyl)-1,4-dioxa-7-azaspiro[4.4]nonane-8-carboxamide] is higher in IC50: less than 0.1 µM for the first, greater than 1 µM for the second.

Same assay, conditions: Human complement C1s enzyme 1.16 nM, substrate Z-L-Lys-SBzl 100 μM, assay of Example 3; read-out: IC50 (Stars)

Going from C=CC(=O)Nc1csc(CNC(=O)[C@@H]2CC3(CN2C(=O)CNC(=O)c2ccc(Oc4ccc(F)cc4)cc2)OCCO3)c1 [Compound 309, (S)-N-((4-acrylamidothiophen-2-yl)methyl)-7-((4-(4-fluorophenoxy)benzoyl)glycyl)-1,4-dioxa-7-azaspiro[4.4]nonane-8-carboxamide] to N=C(N)c1csc(CNC(=O)[C@@H]2CC3(CN2C(=O)CNC(=O)c2ccc(-c4ccc(F)cc4C(=O)O)cc2)OCCO3)c1 [Compound 227, (S)-4′-((2-(8-(((4-carbamimidoylthiophen-2-yl)methyl)carbamoyl)-1,4-dioxa-7-azaspiro[4.4]nonan-7-yl)-2-oxoethyl)carbamoyl)-4-fluoro-[1,1′-biphenyl]-2-carboxylic acid], the IC50 falls from greater than 1 µM to less than 0.1 µM. The second is the more potent here.

C[C@@H](NC(=O)[C@@H]1CC(=C(F)F)CN1C(=O)CNC(=O)c1ccc2c(c1)-c1ccccc1C2(F)F)c1cc(C(=N)N)cs1 [Compound 270, (S)—N—((R)-1-(4-carbamimidoylthiophen-2-yl)ethyl)-1-((9,9-difluoro-9H-fluorene-3-carbonyl)glycyl)-4-(difluoromethylene)pyrrolidine-2-carboxamide] and Cc1ccccc1[C@H]1C[C@@H](C(=O)N[C@H](C)c2cc(C(=N)N)cs2)N(C(=O)CNC(=O)c2ccc3oc4ccccc4c3c2)C1 [Compound 236, (2S,4R)—N—((R)-1-(4-carbamimidoylthiophen-2-yl)ethyl)-1-((dibenzo[b,d]furan-2-carbonyl)glycyl)-4-(o-tolyl)pyrrolidine-2-carboxamide] cannot be ordered by IC50: less than 0.1 µM for the first, less than 0.1 µM for the second.

Compared with C[C@@H](NC(=O)[C@@H]1CC2(CN1C(=O)CN1Cc3ccc(-c4ccc(F)cc4F)cc3C1=O)OCCO2)c1cc(C(=N)N)cs1 [Compound 346, (S)—N—((R)-1-(4-carbamimidoylthiophen-2-yl)ethyl)-7-(2-(6-(2,4-difluorophenyl)-1-oxoisoindolin-2-yl)acetyl)-1,4-dioxa-7-azaspiro[4.4]nonane-8-carboxamide], N=C(N)c1csc(CNC(=O)[C@@H]2CC3(CN2C(=O)CN2CCc4cc(-c5ccc(F)cc5)ccc4C2=O)OCCO3)c1 [Compound 255, (S)—N-((4-carbamimidoylthiophen-2-yl)methyl)-7-(2-(6-(4-fluorophenyl)-1-oxo-3,4-dihydroisoquinolin-2(1H)-yl)acetyl)-1,4-dioxa-7-azaspiro[4.4]nonane-8-carboxamide] is higher in IC50: less than 0.1 µM for the first, greater than 1 µM for the second.

N=C(N)c1csc(CNC(=O)[C@@H]2CC3(CN2C(=O)CNC(=O)c2ccc(-c4ccc(F)c(F)c4)cc2)OCCO3)c1 [Compound 207, (S)—N-((4-carbamimidoylthiophen-2-yl)methyl)-7-((3′,4′-difluoro-[1,1′-biphenyl]-4-carbonyl)glycyl)-1,4-dioxa-7-azaspiro[4.4]nonane-8-carboxamide] and CS(=O)(=O)c1ccc(-c2ccc(C(=O)NCC(=O)N3CC4(C[C@H]3C(=O)NCc3cc(C(=N)N)cs3)OCCO4)cc2)c(F)c1 [Compound 215, (S)—N-((4-carbamimidoylthiophen-2-yl)methyl)-7-((2′-fluoro-4′-(methylsulfonyl)-[1,1′-biphenyl]-4-carbonyl)glycyl)-1,4-dioxa-7-azaspiro[4.4]nonane-8-carboxamide] cannot be ordered by IC50: less than 0.1 µM for the first, less than 0.1 µM for the second.

N=C(N)c1csc(CNC(=O)[C@@H]2CC3(CNC3)CN2C(=O)CNC(=O)CCCOc2ccccc2)c1 [Compound 273, (S)—N-((4-carbamimidoylthiophen-2-yl)methyl)-6-((4-phenoxybutanoyl)glycyl)-2,6-diazaspiro[3.4]octane-7-carboxamide] gave an IC50 of less than 0.1 µM.

Same assay, conditions: Human complement C1s enzyme 1.16 nM, substrate Z-L-Lys-SBzl; assay of Example 3; read-out: IC50 (Stars)

Cc1ccc(-c2cccc(C(=O)NCC(=O)N3C[C@H](S(C)(=O)=O)C[C@H]3C(=O)N[C@H](CO)c3cc(C(=N)N)cs3)c2)cc1 [Compound 404, (2S,4R)—N—((R)-1-(4-carbamimidoylthiophen-2-yl)-2-hydroxyethyl)-1-((4′-methyl-[1,1′-biphenyl]-3-carbonyl)glycyl)-4-(methylsulfonyl) pyrrolidine-2-carboxamide] and CO[C@@H]1C[C@@H](C(=O)N[C@H](CO)c2cc(C(=N)N)cs2)N(C(=O)CNC(=O)c2ccc3c(c2)-c2ccccc2C3(F)F)C1 [Compound 407, (2S,4R)—N—((R)-1-(4-carbamimidoylthiophen-2-yl)-2-hydroxyethyl)-1-((9,9-difluoro-9H-fluorene-3-carbonyl)glycyl)-4-methoxypyrrolidine-2-carboxamide] cannot be ordered by IC50: less than 0.1 µM for the first, less than 0.1 µM for the second.
